In patent publication US20090234162A1, “Radioactive Halogen-Labeled Phenyloxyaniline Derivatives” (Taisho Pharmaceutical Co., Ltd., priority 2005, published 2009):

How the values were obtained:
[1] = molecular target: peripheral benzodiazepine receptor (PBR) (Homo sapiens, UniProt P30536); details: background art, Patent Documents 1 and 2; cited from earlier work
intracerebral PBR = molecular target: T1, intracerebral PBR (Homo sapiens, UniProt P30536); details: 11C-labeled ligand, PET, living human brain; cited from earlier work
T1 construct: In imaging the intracerebral PBR distribution of a living human brain with positron emission tomograph (PET); host or cells: living human brain (PET)
T1 sequence (P30536 whole entry): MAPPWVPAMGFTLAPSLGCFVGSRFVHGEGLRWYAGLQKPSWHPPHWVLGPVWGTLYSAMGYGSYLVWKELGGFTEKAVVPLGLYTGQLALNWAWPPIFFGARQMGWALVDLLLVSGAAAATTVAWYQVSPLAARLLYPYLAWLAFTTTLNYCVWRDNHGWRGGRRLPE

[2] = molecular target: T2, peripheral benzodiazepine receptors (Rattus norvegicus, UniProt P16257); test: Ex vivo autoradiography of rat brain; format: in vivo
T2 construct: from tissue
Description: FIGS. 1 and 2 show cerebral ex vivo autoradiograms taken in 30 minutes after [^131I]2IDAA1106 was administered to a rat. […] In particular, radioactivity levels in the olfactory bulb, choroid plexus and cerebellum decreased remarkably and were equal to or less than 20% of FIG. 1.

[3] = rat, brain 30 minutes after administration, FIG. 1

Sequence of peripheral benzodiazepine receptor (PBR) (P30536 whole entry, species assumed): as the sequence (P30536 whole entry) above

In the case of `COc1ccc(OC)c(CN(C(C)=O)c2cc(F)ccc2Oc2ccccc2)c1` [DAA1106, N-(2,5-dimethoxybenzyl)-N-(5-fluoro-2-phenoxyphenyl)acetamide], the “affinity as PBR ligand” value [1] is given as “strong affinity” and the “selectivity as PBR ligand” value [1] is given as “high selectivity”.
For `COc1ccc(OCCF)c(CN(C(C)=O)c2cc(F)ccc2Oc2ccccc2)c1` [FEDAA1106, N-[2-(2-fluoro)ethyl-5-methoxybenzyl]-N-(5-fluoro-2-phenoxyphenyl)acetamide], the “affinity as PBR ligand” value [1] is listed as “strong affinity” and the “selectivity as PBR ligand” value [1] is listed as “high selectivity”.
For `COc1ccc(CF)c(CN(C(C)=O)c2cc(F)ccc2Oc2ccccc2)c1` [FMDAA1106, N-(2-fluoromethyl-5-methoxybenzyl)-N-(5-fluoro-2-phenoxyphenyl)acetamide], the “affinity as PBR ligand” value [1] is listed as “strong affinity” and the “selectivity as PBR ligand” value [1] is listed as “high selectivity”.
For `CCC(C)N(C)C(=O)c1cc2ccccc2c(-c2ccccc2Cl)n1` (stereo not drawn) [PK 11195, N-methyl-N-(1-methylpropyl)-1-(2-chlorophenyl)-isoquinoline-3-carboxamide], the “accumulation in the brain” value (intracerebral PBR) is given as “extremely low accumulation in the brain”.
For `COc1ccc([131I])c(CN(C(C)=O)c2cc(F)ccc2Oc2ccccc2)c1` [[^131I]2IDAA1106, N-(2-[^131I]iodo-5-methoxybenzyl)-N-(5-fluoro-2-phenoxyphenyl)acetamide], the specificity as radioligand ([2]; conclusion from distribution profile and DAA1106 blocking) was “specific to peripheral benzodiazepine receptors”, the “radioactivity levels in the olfactory bulb, choroid plexus and cerebellum relative to FIG. 1” value ([2]; rat, 30 minutes, co-administration of DAA1106, FIG. 2 as % of FIG. 1) was at most 20% and the “radioactivity distribution in the whole brain when DAA1106 administered at the same time” value ([2]; rat, 30 minutes, co-administration of DAA1106, FIG. 2 versus FIG. 1) was “decreased in the whole brain”. The brain permeability characteristics [2, 3] was “relatively high brain permeability characteristics” and the “radioactivity distribution at the olfactory bulb, choroid plexus and cerebellum” value [2, 3] was “relatively high radioactivity distribution”.
